Laboratory results reported in US12059429B2, “Hornerin: a novel non-VEGF mediated angiogenic protein expressed in both human and mouse angiogenic endothelial cells and human pancreatic cancer cells” (University of Virginia Patent Foundation, priority 2018, dated 2024).

Legend:
Format in all cases: in vivo, mouse
[1] = tested on: tumor vasculature; experiment: Photoacoustic microscopy of tumor vasculature; conditions: day 12
From the text: Using an established PAM system (Wang & Hu, 2012; Ning et al., 2015a; Ning et al., 2015b), the tumor vasculature was characterized in vivo. Two laser wavelengths, 532 and 559 nm, were used to simultaneously quantify microvascular diameter, oxygen saturation, and blood flow at the same spatial scale (Ning et al., 2015a). The applied optical energies were 100 and 75 nJ, which are below the maximum permissible exposure energy. Throughout the experiment, mice were maintained under anesthesia with 1.5% vaporized isoflurane and the body temperature was kept at 37° C. All experimental procedures were carried out in conformity with the laboratory animal protocol approved by the Animal Care and Use Committee at the University of Virginia.

[2] = tested on: L3.6pl tumors; experiment: Ki67 and cleaved caspase 3 immunofluorescence in tumor sections; conditions: day 15 tumor sections
Description: Vessel parameters were measured using RAVE software (Seaman et al., 2011). For detection of proliferation and apoptosis, the sections were incubated with the primary antibodies anti-Ki67 (Abcam, ab15580; 1:200) or anti-cleaved caspase 3 (Cell Signaling, 9661; 1:200), respectively, overnight at 4° C. followed by incubation with anti-rabbit AF594 (Abcam, 150080; 1:200).

[3] = tested on: L3.6pl PDAC cells; experiment: Subcutaneous L3.6pl PDAC xenograft tumor volume
Description: A tumor sample size of four was determined by power analysis based on prior tumor xenograft studies. For our 80% power analysis, the difference between means was 200 mm^3, standard deviation was 100 mm^3, and P-value<0.05 (P<0.05). Tumors were measured at least twice weekly until their volume was >1000 mm^3, at which point animals were euthanized. Tumor size data were collected from each tumor, with the exception of one tumor in the combination treatment experiment that was identified with 90% confidence via Grubb's Outlier Test. The following number of mice in each treatment cohort was evaluated for tumor outgrowth: (Scr siRNA/ctrl., N=15; Hrnr siRNA/ctrl., N=14; Scr siRNA/AV-951, N=8; Hrnr siRNA/AV-951, N=8).
For tumor implantation, L3.6pl cells were grown under normal culture conditions for 72 hours prior to being trypsinized and enumerated. The cells were suspended in aliquots of 500,000 cells/50 μL Hanks Balanced Salt Solution (HBSS; Corning, Manassas, VA, USA) and 50 μL of Matrigel (BD Biosciences, San Jose, CA, USA) was added to each aliquot of cells prior to implantation. The cell-Matrigel slurry was injected subcutaneously into nu/nu mice on the flanks or orthotopically into the pancreas (Seaman et al., 2011). The injection site for subcutaneous tumors was monitored daily for growth and tumor volume was calculated form caliper measurements using the formula (width^2×length)/2.
The VEGFR inhibitor AV-951 (Selleck Chemicals, Houston, TX, USA) was suspended in 0.5% methocel+0.5% Tween-20 in HBSS to increase viscosity and 50 μL of 1.0 mg/kg AV-951 or VC solution was administered once daily by oral gavage (22-gauge gavage needle (Kent Scientific, Torrington, CT, USA) connected to a 1 mL syringe). […] To prepare Hrnr siRNA and Silencer Select Negative Control #1 Scr siRNA (Invitrogen; catalog number 4390844) for injection, 10 μg of hornerin or control siRNA were combined with in vivo-jetPEI transfection reagent (Polyplus, France) in solution with 5% glucose per Polyplus instructions (total volume 50 μL). After a 30 minutes incubation, the siRNA solutions were injected slowly into the center of the tumor. A second independent hornerin knockdown experiment was conducted using a pooled set of three unique mouse Hrnr siRNA duplexes (5′-[…]-3′ (SEQ ID NO: 50); 5 ‘-[…]-3’ (SEQ ID NO: 51); 5 ‘-[…]-3’ (SEQ ID NO: 52)) and Scr siRNA (Origene, Rockville, MD, USA). The reagent preparation and injection protocol were similar to that described above.

cleaved caspase 3 levels in tumors relative to control [2]: two-fold increase
Substance: 5′-GCAUGGAUCUUGUUGCGGUTT-3′ [Hrnr siRNA]
tumor blood hemoglobin levels [1]: remained unchanged
tumor blood oxygen saturation compared to control [1]: 1.7 fold
tumors smaller compared to Scr siRNA-injected tumors ([3]; intratumoral injection every other day from day 7, volume at day 13 post implantation): 2.5 fold
reduction in tumor volume (discussion summary) ([3]; monotherapy or combined therapies): two-fold
